≈ marks a conversion by molar mass, not a printed value. Bounds are passed on as bounds.

The record followed here is patent US20230174584A1, “Antibiotic Compounds” (priority 2019, published 2023).

The test system of one assay is E. faecalis E7406. Nature of the assay: microbe, parasite or virus in culture. Format: cell-based, Enterococcus faecalis. The following applies: Enterococcus faecalis, VRE. The method, boiled down:
(§1)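 Following CLSI guidance, the assay uses twofold compound dilutions in tryptic soy broth plus 0.002% polysorbate 80, equal-volume inoculum of 10^6 CFU/mL, and a 24 h shaken incubation at 37 °C. Values are medians of triplicate or more, in μg/mL.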

In assay [1] the test system is panel of 31 vancomycin-resistant E. faecium strains. The assay can be described thus: MIC assay, MIC50/MIC90 over panel. Format: cell-based, Enterococcus faecium. As to conditions: Enterococcus faecium. How it is done: The antibacterial activity of the compounds was tested against a panel of bacteria, including Gram-positive bacteria (S. aureus ATCC29213, S. aureus USA300, S. aureus LIM-2, NR-45881, S. aureus HIP13419, NR-46413, E. faecium E155, E. faecium E7314, E. faecium E980, E. faecalis E1246, E. faecalis E7406 and S. pneumonia 153). The antibacterial activity of the compounds was further tested against S. aureus NY-155, NR-46236, S. aureus HIP12864, NR-46074, S. aureus 880 (BR-VRSA), NR-49120, E. faecalis E1246, E. faecalis E7604, as well as some Gram-negative bacteria (Escherichia coli and Klebsiella pneumoniae). Minimum inhibitory concentrations (MICs) in μg/mL were performed according to the CLSI guidelines. From glycerol stocks, bacterial strains were cultured on blood agar plates and incubated at 37° C. for 18 h. A single colony was transferred to tryptic soy broth (TSB) with 0.002% polysorbate 80 (p80). For the Enterococcus, VISA and VRSA strains, the cultures were grown at 37° C. until the optical density of the suspension reached a level equivalent to the 0.5 McFarland standard. The bacterial suspensions were diluted in TSB with 0.002% p80 to reach a bacterial cell density of 10^6 CFU/mL. In case of the other (vancomycin-sensitive) S. aureus strains, the direct colony suspension method was used. For these strains, after transfer of the colonies to TSB with 0.002% p80, they were immediately diluted to 10^6 CFU/mL, instead of incubated prior to this dilution. In the case of S. pneumonia, direct colony suspension was used by immediately suspending multiple colonies from fresh blood agar plates in TSB+0.002% p80 to an OD600 of 0.5 and subsequent dilution to 10^6 CFU mL^−1 in TSB+0.002% p80+5% lysed horse blood. Antibiotic dilutions for this strains were also made in TSB+0.002% p80+5% lysed horse blood. Both agar and microplates containing S. pneumonia were incubated at 37° C. with 5% CO2 for 24 h with constant shaking (600 rpm). […] The cultures were grown to exponential phase (OD600=0.5) at 37° C. […] In polypropylene 96-well microtiter plates, test compounds were added in biological triplicates and serial diluted 2-fold by transfer and mixing from one well to the next to achieve a final volume of 50 μL per well. An equal volume of bacterial suspension (10^6 CFU mL^−1) was added to the wells. The plates were sealed with breathable membranes and incubated at 37° C. for 24 h with constant shaking (600 rpm). In polypropylene microtiter plates, 100 μL of the test compounds was added to the first row in biological triplicates, and 50 μL of media was added to the other wells. The compounds were subjected to serial dilution by transfer and mixing of 50 μL from one well to the next. Subsequently, 50 μL of bacterial suspension (10^6 CFU/mL) was added to the wells. The plates were sealed with breathable membranes and incubated at 37° C. for 24 h with constant shaking (600 rpm). Positive growth control consisted of wells with bacterial suspension and without antibiotic. Negative growth control consisted of solely media without bacterial suspension or antibiotic. The MICs were determined from the median of a minimum of triplicates.

Another assay relates to E. faecalis E1246. Nature of the assay: MIC assay. Format: cell-based, Enterococcus faecalis. The method, boiled down:
as §1

The subject of assay [2] is S. aureus LIM-2, NR-25881. Nature of the assay: MIC assay. The following applies: Staphylococcus aureus, VISA. The assay is classed as cell-based, Staphylococcus aureus. The method, boiled down: as §1
In assay [3] the test system is S. aureus HIP12864, NR-46074. The assay can be described thus: MIC assay. Format: cell-based, Staphylococcus aureus. The following applies: Staphylococcus aureus, VISA. The method, boiled down:
as §1

Assay [4] concerns S. aureus NY-155, NR-46236. Nature of the assay: MIC assay. The assay is classed as cell-based, Staphylococcus aureus. The following applies: Staphylococcus aureus, MRSA. Summed up:
as §1

The test system of the next assay is S. aureus ATCC29213. The assay can be described thus: MIC assay. Format: cell-based, Staphylococcus aureus. The following applies: Staphylococcus aureus, ATCC 29213 / MSSA. The method, boiled down: as §1
Assay [5] concerns S. aureus 880 (BR-VRSA), NR-49120. The assay can be described thus: MIC assay. The assay is classed as cell-based, Staphylococcus aureus. The method, boiled down: as §1
A further assay deals with E. faecium E2373. The assay can be described thus: MIC assay. Format: cell-based, Enterococcus faecium. As to conditions: Enterococcus faecium, E2373. Summed up: as §1
In a further assay the test system is E. faecium E8237. The assay can be described thus: MIC assay. The assay is classed as cell-based, Enterococcus faecium. As to conditions: Enterococcus faecium, E8237. Summed up: as §1
In the next assay the test system is E. faecium E0300. The assay can be described thus: MIC assay. The assay is classed as cell-based, Enterococcus faecium. The following applies: Enterococcus faecium, E0300. Summed up:
as §1

For another assay, the system named is E. faecium E0745. The assay can be described thus: MIC assay. Format: cell-based, Enterococcus faecium. As to conditions: Enterococcus faecium, E0745. Summed up: as §1
The subject of assay [6] is Escherichia coli ATCC 25922. Nature of the assay: MIC assay. Format: cell-based. The following applies: ATCC25922, read-out: MIC. The method, boiled down: as §1
The test system of assay [7] is Klebsiella pneumoniae JS265. The assay can be described thus: MIC assay. The following applies: read-out: MIC. The assay is classed as cell-based. The method, boiled down: as §1
For assay [8], the system named is Klebsiella pneumoniae ATCC 27736. Nature of the assay: MIC assay. The assay is classed as cell-based. As to conditions: ATCC27736, read-out: MIC. The method, boiled down:
as §1

For the next assay, the system named is Escherichia coli W3110. Nature of the assay: MIC assay. The assay is classed as cell-based. As to conditions: read-out: MIC. Summed up: as §1
The test system of a further assay is S. pneumoniae 153. The assay can be described thus: MIC assay. As to conditions: Streptococcus pneumoniae, 153. The assay is classed as cell-based. Summed up:
as §1

Assay [9] has as its system Escherichia coli ATCC 35218. Nature of the assay: MIC assay. Format: cell-based. Summed up: as §1
The test system of assay [10] is Klebsiella pneumoniae ATCC 13883. The assay can be described thus: MIC assay. Format: cell-based. The following applies: ATCC13883, read-out: MIC. Summed up: as §1
The test system of the next assay is E. faecium E1441. The assay can be described thus: MIC assay. Format: cell-based, Enterococcus faecium. The following applies: Enterococcus faecium, E1441.

As usually defined, the MIC50 is the lowest concentration that inhibits either 50% of growth or 50% of the strains tested, depending on the study. The MIC90 is the lowest concentration that inhibits either 90% of growth or 90% of the strains tested, depending on the study. Lower therefore signals greater potency. As to `CN[C@H](CC(C)C)C(=O)N[C@H]1C(=O)N[C@@H](CC(N)=O)C(=O)N[C@H]2C(=O)N[C@H]3C(=O)N[C@H](C(=O)N[C@H](C(=O)O)c4cc(O)cc(O)c4-c4cc3ccc4O)[C@H](O)c3ccc(c(Cl)c3)Oc3cc2cc(c3O[C@@H]2O[C@H](CO)[C@@H](O)[C@H](O)[C@H]2O[C@H]2C[C@](C)(N)[C@H](O)[C@H](C)O2)Oc2ccc(cc2Cl)[C@H]1O` [Vancomycin, reference compound], the MIC in the assay on E. faecalis E7406 was 16 µg/mL (≈ 11 µM); in the assay with E. faecalis E1246 (E. faecalis E1246 VRE (vanA), Table 9), over 128 µg/mL; against E. faecalis E1246 (Enterococcus faecalis, VRE), over 128 µg/mL; in assay [2], 8 µg/mL (≈ 5.52 µM); in assay [3], 8 µg/mL (≈ 5.52 µM); in assay [4], 2 µg/mL (≈ 1.38 µM). For the same compound, the MIC against S. aureus ATCC29213 is 1 µg/mL (≈ 0.69 µM); in [5] (Staphylococcus aureus, VRSA), over 128 µg/mL; in assay [5] (strain BR-VRSA) it was over 128 µg/mL; against E. faecium E2373, over 128 µg/mL; against E. faecium E8237, over 128 µg/mL; in the assay on E. faecium E0300, over 128 µg/mL. Further, the MIC was over 128 µg/mL in the assay with E. faecium E0745; over 128 µg/mL in assay [6]; over 128 µg/mL in [7]; over 128 µg/mL in [8]; over 128 µg/mL in the assay with Escherichia coli W3110; 0.5 µg/mL (≈ 0.345 µM) against S. pneumoniae 153. For the same compound, the MIC (in [9]; in assay [10]; in the assay with E. faecium E1441) was over 128 µg/mL in each case. In [1], this compound returned an MIC50 of 128 µg/mL (≈ 88.3 µM). This compound displayed an MIC90 in assay [1] of 128 µg/mL (≈ 88.3 µM).
